Source: PMC6915728 (Nature Communications, 2019)
Like-named read-outs stand apart in the source and are kept apart here.

Tests used:
[1] = tested on: E. coli BW25113 overexpression strains (ASKA plasmids); experiment: Minimum inhibitory concentration (MIC), serial broth dilution, single-gene overexpression strains vs empty-vector control; format: cell-based, Escherichia coli; conditions: for Average relative change in MIC: mlaD overexpression strain relative to control (wild-type+empty vector), 3 replicates each, from optical density values of serial dilution plates, AMP in µg ml-1; for Relative MIC: broth dilution, MS medium, 100 µM IPTG, 30 °C, 20-24 h, OD600, 3 replicates
Outline: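 E. coli overexpression strains grown in MS medium with chloramphenicol, induced with 100 µM IPTG for 1 h at 30 °C, then about half-million cells inoculated into 12-step AMP dilutions (typically 1.2-fold steps). OD600 read after 20–24 h at 30 °C with shaking; triplicate strains compared with empty-vector control.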

bacterial membrane = conditions: literature mining; ref superscript numbers in the cell, listed in Supplementary Data 7 sheet References; cited from earlier work
Text: Supplement 41467_2019_13618_MOESM10_ESM.xlsx, sheet "AMP details" | column: Pore formation

[2] = tested on: E. coli gene overexpression; conditions: cited from earlier work
Text: Supplement 41467_2019_13618_MOESM1_ESM.docx, table 1: Supplementary Table 1. Collected examples of E. coli gene overexpression from the literature as a confirmation of our chemical-genetic screen results. | column: Overexpression phenotype

[3] = tested on: E. coli K12 BW25113 carrying the pooled ASKA overexpression plasmid library (~4400 ORFs); experiment: Chemical-genetic profiling: pooled competitive growth of the ASKA gene-overexpression library with and without AMP, deep sequencing readout; format: cell-based, Escherichia coli; conditions: whether the literature phenotype was captured by the overexpression screen
Text: We generated chemical-genetic interaction profiles for a diverse set of AMPs (Table 1) by screening them against a comprehensive library of gene overexpressions in E. coli[21]. Increasing gene dosage is a widely applied approach to reveal the targets of small-molecule antibiotics[22],[23]. It also informs on the ‘latent resistome’, that is, the collection of genes where a change from native expression level enhances resistance to a particular drug[24]. We applied a sensitive competition assay by monitoring growth of a pooled plasmid library, overexpressing all the E. coli ORFs (Fig. 1a), as we reported earlier. Specifically, E. coli cells carrying the pooled plasmid collection were grown in the presence or absence of one of the 15 AMPs tested, at a sub-inhibitory concentration that increased the doubling time of the whole population by 2-fold. Following 12 generations of growth, the plasmid pool was isolated from each selection and the relative abundance of each plasmid was determined by a deep sequencing readout (see Methods).
We carried out chemical-genetic profiling to determine the impact of the overexpression of each E. coli ORF on bacterial susceptibility to each of the 15 different AMPs. To this end, we used the complete set of E. coli K-12 Open Reading Frame Archive (ASKA) plasmid library (GFP minus) where each E. coli ORF is cloned into a high copy number expression plasmid (pCA24N-ORFGFP(-)). Prior to screening, the ASKA library was grown in the original host strain E. coli K-12 AG1 in 96-well plates (growth conditions: 37 °C, 280 rpm, LB medium). An equal aliquot of each member of the ASKA library (each well of the 96-well plates) was pooled together and the plasmid DNA (pCA24N-ORF-GFP(-)) was isolated and transformed into E. coli K12 BW25113 strain[51]. To obtain a negative control strain not having any overexpressed gene, the plasmid without a cloned ORF (pCA24N-noORF) was also transformed into the same E. coli strain. Then, on the pooled collection, we applied a previously reported competitive growth assay. Specifically, the pooled overexpression library and the control strain were grown in parallel in MS medium supplemented with 20 µg per ml chloramphenicol and the overexpression was induced by 100 µM isopropyl-ß-D-thiogalactopyranoside (IPTG). After 1 h induction, ~5 × 10^5 bacterial cells from the library were inoculated into each well of a 96-well microtiter plate containing a concentration gradient of an AMP in the MS medium supplemented with 20 µg per ml chloramphenicol and 100 µM IPTG. At the same time, both the library and the control strain with the empty plasmid were grown in the absence of any AMPs. We took special care to grow both of these samples in the exact same conditions as the samples in the presence of AMPs. Bacterial growth was monitored in a microplate reader (Biotek Synergy 2) for 24 h. At the end of the exponential growth phase, we selected those wells in which the doubling time of the cell population was increased by 2-fold. Then, from these wells, cells were split into four equal proportion and each was transferred into 20 mL of MS medium supplemented with the corresponding AMP in four different concentrations in the range that slowed down growth by two-fold in the microtitre plate. […] The rationale for this 2-step process was to maintain competition in exponential phase for 12 generations of growth, efficiently control the growth rate in a reproducible manner and obtain the plasmid pool with standard DNA isolation protocol (innuPREP plasmid mini Kit, Analytik Jena AG) in a yield that is enough for the downstream analysis. The cultures were vigorously shaken along the entire protocol to make sure that the cultures are completely homogeneous and therefore biasing interactions between clones (such as trans-resistance) was minimized. […]

[4] = overexpression strain gadW, MIC of overexpression strain / MIC of empty-plasmid control
[5] = overexpression strain lptB, MIC of overexpression strain / MIC of empty-plasmid control
[6] = overexpression strain mlaD, MIC of the overexpression strain / MIC of the control strain (wild-type carrying the empty plasmid)
[7] = overexpression strain uhpC, MIC of overexpression strain / MIC of empty-plasmid control
[8] = overexpression strain yhbJ, MIC of overexpression strain / MIC of empty-plasmid control
[9] = overexpression strain ytjB, MIC of overexpression strain / MIC of empty-plasmid control
[10] = gene ompT overexpressed, ref 4 (Stumpe et al. 1998)
[11] = overexpression strain hyfA, MIC of overexpression strain / MIC of empty-plasmid control
[12] = overexpression strain mlaC, MIC of overexpression strain / MIC of empty-plasmid control

For “TSSPPAAVVVRRRRRRRRRRRRRRRRRRR [PROA, Protamine, source herring, purchased from Sigma-Aldrich; cluster C3]”, which “Average relative change in MIC” value [1] is on record?
The value was 0.70.

What about the “Relative MIC” value ([1]; overexpression strain cvpA, MIC of overexpression strain / MIC of empty-plasmid control) of the same sequence?
The value was 0.78.

What about the “Relative MIC” value [1, 4] of the same sequence?
The value was 0.78.

What about the “Relative MIC” value [1, 5] of the same sequence?
The value was 0.51.

What about the “Relative MIC” value [1, 6] of the same sequence?
Its value is 0.72.

And the “Relative MIC” value ([1]; overexpression strain mzrA, MIC of overexpression strain / MIC of empty-plasmid control)?
Its value is 0.36.

What about the “Relative MIC” value ([1]; overexpression strain nikB, MIC of overexpression strain / MIC of empty-plasmid control) of the same sequence?
Its value is less than 0.71.

What about the “Relative MIC” value ([1]; overexpression strain ompT, MIC of overexpression strain / MIC of empty-plasmid control) of the same sequence?
Its value is greater than 2.5.

And the “Relative MIC” value ([1]; overexpression strain ptsN, MIC of overexpression strain / MIC of empty-plasmid control)?
Its value is 1.47.

What about the “Relative MIC” value [1, 7] of the same sequence?
Its value is less than 0.61.

What about the “Relative MIC” value [1, 8] of the same sequence?
Its value is 0.69.

What about the “Relative MIC” value [1, 9] of the same sequence?
Its value is 0.8.

What about the “Pore formation (whether AMP makes pores in the bacterial membrane)” value (shortened to “Pore formation”) (bacterial membrane) of the same sequence?
The value was “No43”.

What about the “Overexpression phenotype, Literature” value ([2]; gene nlpE overexpressed, ref 6 (Griffin 2013)) of the same sequence?
Its value is “Resistance^6”.

And the “Overexpression phenotype, Literature” value [2, 10]?
The value was “Resistance^4”.

And the “Overexpression phenotype, Chemical-genetic profile” value ([3]; gene nlpE)?
Its value is “Confirmed”.

What about the “Overexpression phenotype, Chemical-genetic profile” value ([3]; gene ompT) of the same sequence?
The value was “Confirmed”.

Which “Average relative change in MIC” value [1] does the source give for “LLGDFFRKSKEKIGKEFKRIVQRIKDFLRNLVPRTES [LL37, LL-37 human cathelicidin, human host-defense peptide; disrupts cell membrane; cluster C2]” here?
The value was 2.42.

What about the “Relative MIC” value [1, 4] of the same sequence?
Its value is 0.79.

And the “Relative MIC” value [1, 11]?
Its value is 0.74.

And the “Relative MIC” value [1, 5]?
The value was 1.2.

What about the “Relative MIC” value [1, 12] of the same sequence?
The value was 1.43.

And the “Relative MIC” value [1, 6]?
The value was 2.5.

And the “Relative MIC” value ([1]; overexpression strain yijE, MIC of overexpression strain / MIC of empty-plasmid control)?
Its value is 1.2.

What about the “Relative MIC” value [1, 9] of the same sequence?
The value was 1.2.

What about the “Pore formation” value (bacterial membrane) of the same sequence?
Its value is “Yes22”.

And the “Overexpression phenotype, Literature” value ([2]; gene marA overexpressed, ref 3 (Warner & Levy 2010))?
The value was “Resistance^3”.

What about the “Overexpression phenotype, Literature” value [2, 10] of the same sequence?
Its value is “Resistance^4”.

And the “Overexpression phenotype, Chemical-genetic profile” value ([3]; gene ompT)?
Its value is “Confirmed”.

Which “Average relative change in MIC” value [1] does the source give for “GLRKRLRKFRNKIKEKLKKIGQKIQGFVPKLAPRTDY [CAP18, antimicrobial peptide, source rabbit; disrupts cell membrane; cluster C3]” here?
The value was 1.86.

And the “Relative MIC” value [1, 11]?
Its value is 0.72.

And the “Relative MIC” value [1, 12]?
Its value is 2.1.

And the “Relative MIC” value [1, 6]?
Its value is 2.42.

What about the “Relative MIC” value ([1]; overexpression strain murA, MIC of overexpression strain / MIC of empty-plasmid control) of the same sequence?
The value was greater than 2.25.

And the “Relative MIC” value ([1]; overexpression strain narY, MIC of overexpression strain / MIC of empty-plasmid control)?
The value was 0.76.

And the “Relative MIC” value ([1]; overexpression strain rpoH, MIC of overexpression strain / MIC of empty-plasmid control)?
The value was greater than 2.25.

What about the “Relative MIC” value [1, 7] of the same sequence?
The value was 1.66.

What about the “Relative MIC” value [1, 8] of the same sequence?
The value was greater than 2.25.

And the “Relative MIC” value [1, 9]?
Its value is 1.72.

And the “Pore formation” value (bacterial membrane)?
The value was “Yes35”.

And the “Overexpression phenotype, Literature” value ([2]; gene waaY overexpressed, ref 10 (Lázár et al. 2018))?
Its value is “Sensitivity^10”.

And the “Overexpression phenotype, Chemical-genetic profile” value ([3]; gene waaY)?
The value was “Confirmed”.
